# Data: US8513161B2, “Enhancement of plant growth” (Valent Biosciences Corporation, priority 2007, dated 2013)
# Where a name gives a salt, the structure may show the parent alone.
# Tested on: sorghum
# Assay: Field study, seed treatment of sorghum
# Type: in vivo
# Conditions: for root dry weight of a sample of 10 sorghum plants: 73 days after planting, control 148.5
# Procedure: For the field studies, the seed was treated with a seed treatment formulation containing clothianidin. The rate of clothianidin was dependent on the crop species. The seed treatment formulations were amended with the appropriate concentrations of either PESA or the sodium salt of PESA. Crops were planted and grown under standard agricultural practices, and evaluated at the times indicated. The sodium salt of PESA was prepared as described above, and was used in seed treatment either alone or in the presence of clothianidin. Sorghum seed was treated with 0 or 200 grams of clothianidin/100 kg (220 pound) of seed and with 0, 22, 55, or 137.5 grams PESA salt/100 kg seed.
structure (smiles),measurement,setting,value
O=C(O)CCC(=O)NCCc1ccccc1 [PESA salt],root dry weight of a sample of 10 sorghum plants,sodium salt of PESA 22 g/100 kg seed alone,183.5 grams
same,root dry weight of a sample of 10 sorghum plants,sodium salt of PESA 55 g/100 kg seed alone,146.5 grams
same,root dry weight of a sample of 10 sorghum plants,sodium salt of PESA 137.5 g/100 kg seed alone,141.6 grams
same,safening of sorghum,conclusion from Table 10,safened sorghum against clothianidin-induced root growth inhibition
